Among the data in US10975077B2 (Novira Therapeutics, Inc., priority 2016, dated 2021) are EC50 values, retold here.

As usually defined, the EC50 is the concentration needed to bring the measured effect to its halfway point.

The assay has as its system HBV (encapsidated HBV DNA, HepG2.2.15 cells). The assay is described as follows: HBV replication inhibition assay, BDNA assay in HepG2.2.15 cells. The conditions noted are these: Hepatitis B virus, HepG2.2.15, Activity in BDNA-assay. The assay is classed as cell-based. In short, it runs like this:
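Encapsidated HBV DNA in DNase-treated, proteinase K-lysed supernatant was measured by branched DNA after 6 days' compound exposure, refreshed on day 3, of HepG2.2.15 cells in 0.5% DMSO. Signals normalized to DMSO-treated wells; EC50 from nonlinear regression of inhibition against log concentration.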
For `C[C@@H]1Cc2nn3c(c2CN1C(=O)Nc1ccc(F)c(C(F)(F)F)c1)C(=O)N(C)CC(F)C3` (single isomer, unassigned) [Compound 138, (3R,8R*)-8-fluoro-N-(4-fluoro-3-(trifluoromethyl)phenyl)-3,10-dimethyl-11-oxo-1,3,4,7,8,9,10,11-octahydro-2H-pyrido[4′,3′:3,4]pyrazolo[1,5-a][1,4]diazepine-2-carboxamide], the EC50 is 0.001 to 0.1 µM. Take `C=C1CN(C)C(=O)c2c3c(nn2C1)CCN(C(=O)Nc1ccc(F)c(Cl)c1)C3` [Compound 001, N-(3-chloro-4-fluorophenyl)-10-methyl-8-methylene-11-oxo-1,3,4,7,8,9,10,11-octahydro-2H-pyrido[4′,3′:3,4]pyrazolo[1,5-a][1,4]diazepine-2-carboxamide]: the 50% effective concentration (EC50) lay in the range of 0.001 to 0.1 µM. The result for `CN1CC(O)(CO)Cn2nc3c(c2C1=O)CN(C(=O)Nc1ccc(F)c(Cl)c1)CC3` (stereo not shown) [Compound 003] reads 0.5 to 1 µM; that for `CN1CC(O)Cn2nc3c(c2C1=O)CN(C(=O)Nc1ccc(F)c(Cl)c1)CC3` (stereo not shown) [Compound 004, N-(3-chloro-4-fluorophenyl)-8-hydroxy-10-methyl-11-oxo-1,3,4,7,8,9,10,11-octahydro-2H-pyrido[4′,3′:3,4]pyrazolo[1,5-a][1,4]diazepine-2-carboxamide], 0.001 to 0.1 µM; that for `CN1CC(F)(F)Cn2nc3c(c2C1=O)CN(C(=O)Nc1ccc(F)c(Cl)c1)CC3` [Compound 005, N-(3-chloro-4-fluorophenyl)-8,8-difluoro-10-methyl-11-oxo-1,3,4,7,8,9,10,11-octahydro-2H-pyrido[4′,3′:3,4]pyrazolo[1,5-a][1,4]diazepine-2-carboxamide], 0.001 to 0.1 µM.

`CN1CC(F)Cn2nc3c(c2C1=O)CN(C(=O)Nc1ccc(F)c(Cl)c1)CC3` (stereo not shown) [Compound 006, N-(3-chloro-4-fluorophenyl)-8-fluoro-10-methyl-11-oxo-1,3,4,7,8,9,10,11-octahydro-2H-pyrido[4′,3′:3,4]pyrazolo[1,5-a][1,4]diazepine-2-carboxamide]: the EC50 lay within 0.001 to 0.1 µM.

As for `CN1CC(F)Cn2nc3c(c2C1=O)CN(C(=O)Nc1ccc(F)c(Br)c1)CC3` (stereo not shown) [Compound 007, N-(3-bromo-4-fluorophenyl)-8-fluoro-10-methyl-11-oxo-1,3,4,7,8,9,10,11-octahydro-2H-pyrido[4′,3′:3,4]pyrazolo[1,5-a][1,4]diazepine-2-carboxamide], the EC50 was in the range of 0.001 to 0.1 µM.

Turning to `CN1CC(F)Cn2nc3c(c2C1=O)CN(C(=O)Nc1ccnc(Br)c1F)CC3` (stereo not shown) [Compound 008, N-(2-bromo-3-fluoropyridin-4-yl)-8-fluoro-10-methyl-11-oxo-1,3,4,7,8,9,10,11-octahydro-2H-pyrido[4′,3′:3,4]pyrazolo[1,5-a][1,4]diazepine-2-carboxamide], the EC50 was 0.001 to 0.1 µM.

As to `CN1CC(F)Cn2nc3c(c2C1=O)CN(C(=O)Nc1ccc(F)c(C#N)c1)CC3` (stereo not shown) [Compound 009, N-(3-cyano-4-fluorophenyl)-8-fluoro-10-methyl-11-oxo-1,3,4,7,8,9,10,11-octahydro-2H-pyrido[4′,3′:3,4]pyrazolo[1,5-a][1,4]diazepine-2-carboxamide], the EC50 lay within 0.001 to 0.1 µM. Turning to `Cc1cc(NC(=O)N2CCc3nn4c(c3C2)C(=O)N(C)CC(F)C4)ccc1F` (stereo not shown) [Compound 010, 8-fluoro-N-(4-fluoro-3-methylphenyl)-10-methyl-11-oxo-1,3,4,7,8,9,10,11-octahydro-2H-pyrido[4′,3′:3,4]pyrazolo[1,5-a][1,4]diazepine-2-carboxamide], the EC50 was 0.001 to 0.1 µM. The result for `CN1CC(F)Cn2nc3c(c2C1=O)CN(C(=O)Nc1ccc(F)c(C(F)(F)F)c1)CC3` (stereo not shown) [Compound 011, 8-fluoro-N-(4-fluoro-3-(trifluoromethyl)phenyl)-10-methyl-11-oxo-1,3,4,7,8,9,10,11-octahydro-2H-pyrido[4′,3′:3,4]pyrazolo[1,5-a][1,4]diazepine-2-carboxamide] reads 0.001 to 0.1 µM. The result for `CN1CC(F)Cn2nc3c(c2C1=O)CN(C(=O)Nc1cc(Cl)c(F)cc1F)CC3` (stereo not shown) [Compound 012, N-(5-chloro-2,4-difluorophenyl)-8-fluoro-10-methyl-11-oxo-1,3,4,7,8,9,10,11-octahydro-2H-pyrido[4′,3′:3,4]pyrazolo[1,5-a][1,4]diazepine-2-carboxamide] reads 0.001 to 0.1 µM; that for `CN1CC(F)Cn2nc3c(c2C1=O)CN(C(=O)Nc1cc(Br)c(F)cc1F)CC3` (stereo not shown) [Compound 013, N-(5-bromo-2,4-difluorophenyl)-8-fluoro-10-methyl-11-oxo-1,3,4,7,8,9,10,11-octahydro-2H-pyrido[4′,3′:3,4]pyrazolo[1,5-a][1,4]diazepine-2-carboxamide], 0.001 to 0.1 µM; that for `CC1CN(C)C(=O)c2c3c(nn2C1)CCN(C(=O)Nc1ccc(F)c(Cl)c1)C3` (stereo not shown) [Compound 014, N-(3-chloro-4-fluoro-phenyl)-8,10-dimethyl-11-oxo-1,3,4,7,8,9-hexahydropyrido[2,3]pyrazolo[2,4-b][1,4]diazepine-2-carboxamide], 0.001 to 0.1 µM.

`CN1CCCn2nc3c(c2C1=O)CN(C(=O)Nc1ccc(F)c(Cl)c1)CC3` [Compound 015, N-(3-chloro-4-fluoro-phenyl)-10-methyl-11-oxo-1,3,4,7,8,9-hexahydropyrido [2,3]pyrazolo[2,4-b][1,4]diazepine-2-carboxamide]: the 50% effective concentration (EC50) fell in the range of 0.001 to 0.1 µM. For `CCOC1CN(C)C(=O)c2c3c(nn2C1)CCN(C(=O)Nc1ccc(F)c(Cl)c1)C3` (stereo not shown) [Compound 017, N-(3-chloro-4-fluorophenyl)-8-ethoxy-10-methyl-11-oxo-1,3,4,7,8,9,10,11-octahydro-2H-pyrido[4′,3′:3,4]pyrazolo[1,5-a][1,4]diazepine-2-carboxamide] the value was 0.001 to 0.1 µM; for `CN1CC(N)Cn2nc3c(c2C1=O)CN(C(=O)Nc1ccc(F)c(Cl)c1)CC3` (stereo not shown) [Compound 019, 8-amino-N-(3-chloro-4-fluorophenyl)-10-methyl-11-oxo-1,3,4,7,8,9,10,11-octahydro-2H-pyrido[4′,3′:3,4]pyrazolo[1,5-a][1,4]diazepine-2-carboxamide], 0.1 to 0.5 µM. As for `CN1CC(N(C)C)Cn2nc3c(c2C1=O)CN(C(=O)Nc1ccc(F)c(Cl)c1)CC3` (stereo not shown) [Compound 020, N-(3-chloro-4-fluorophenyl)-8-(dimethylamino)-10-methyl-11-oxo-1,3,4,7,8,9,10,11-octahydro-2H-pyrido[4′,3′:3,4]pyrazolo[1,5-a][1,4]diazepine-2-carboxamide], the concentration for a half-maximal effect (EC50) fell in the range of 0.001 to 0.1 µM.

For `CN1CC(N2CCOCC2)Cn2nc3c(c2C1=O)CN(C(=O)Nc1ccc(F)c(Cl)c1)CC3` (stereo not shown) [Compound 021, N-(3-chloro-4-fluorophenyl)-10-methyl-8-morpholino-11-oxo-1,3,4,7,8,9,10,11-octahydro-2H-pyrido[4′,3′:3,4]pyrazolo[1,5-a][1,4]diazepine-2-carboxamide], the concentration giving a half-maximal response (EC50) fell in the range of 0.1 to 0.5 µM. As to `CN1CC(N2CC(F)(F)C2)Cn2nc3c(c2C1=O)CN(C(=O)Nc1ccc(F)c(Cl)c1)CC3` (stereo not shown) [Compound 022, N-(3-chloro-4-fluorophenyl)-8-(3,3-difluoroazetidin-1-yl)-10-methyl-11-oxo-1,3,4,7,8,9,10,11-octahydro-2H-pyrido[4′,3′:3,4]pyrazolo[1,5-a][1,4]diazepine-2-carboxamide], the EC50 fell in the range of 0.1 to 0.5 µM. As to `CN1CC(N2CCC2)Cn2nc3c(c2C1=O)CN(C(=O)Nc1ccc(F)c(Cl)c1)CC3` (stereo not shown) [Compound 023, 8-(azetidin-1-yl)-N-(3-chloro-4-fluorophenyl)-10-methyl-11-oxo-1,3,4,7,8,9,10,11-octahydro-2H-pyrido[4′,3′:3,4]pyrazolo[1,5-a][1,4]diazepine-2-carboxamide], the EC50 lay in the range of 0.001 to 0.1 µM.

As to `CN1CC(N2CCCC2)Cn2nc3c(c2C1=O)CN(C(=O)Nc1ccc(F)c(Cl)c1)CC3` (stereo not shown) [Compound 024, N-(3-chloro-4-fluorophenyl)-10-methyl-11-oxo-8-(pyrrolidin-1-yl)-1,3,4,7,8,9,10,11-octahydro-2H-pyrido[4′,3′:3,4]pyrazolo[1,5-a][1,4]diazepine-2-carboxamide], the EC50 was 0.001 to 0.1 µM. For `CSC1CN(C)C(=O)c2c3c(nn2C1)CCN(C(=O)Nc1ccc(F)c(Cl)c1)C3` (stereo not shown) [Compound 025, N-(3-chloro-4-fluorophenyl)-10-methyl-8-(methylthio)-11-oxo-1,3,4,7,8,9,10,11-octahydro-2H-pyrido[4′,3′:3,4]pyrazolo[1,5-a][1,4]diazepine-2-carboxamide], the EC50 is 0.001 to 0.1 µM.

Turning to `CN1CC(S(C)(=O)=O)Cn2nc3c(c2C1=O)CN(C(=O)Nc1ccc(F)c(Cl)c1)CC3` (stereo not shown) [Compound 027, N-(3-chloro-4-fluoro-phenyl)-10-methyl-8-methylsulfonyl-11-oxo-1,3,4,7,8,9-hexahydropyrido[2,3]pyrazolo[2,4-b][1,4]diazepine-2-carboxamide], the EC50 is 0.001 to 0.1 µM. The result for `COC(=O)CC1CN(C)C(=O)c2c3c(nn2C1)CCN(C(=O)Nc1ccc(F)c(Cl)c1)C3` (stereo not shown) [Compound 028, methyl 2-(2-((3-chloro-4-fluorophenyl)carbamoyl)-10-methyl-11-oxo-1,3,4,7,8,9,10,11-octahydro-2H-pyrido[4′,3′:3,4]pyrazolo[1,5-a][1,4]1diazepin-8-yl)acetate] reads 0.1 to 0.5 µM; that for `CN1CC(CCO)Cn2nc3c(c2C1=O)CN(C(=O)Nc1ccc(F)c(Cl)c1)CC3` (stereo not shown) [Compound 029], 0.1 to 0.5 µM. For `CCOC(=O)C1CN(C)C(=O)c2c3c(nn2C1)CCN(C(=O)Nc1ccc(F)c(Cl)c1)C3` (stereo not shown) [Compound 030, ethyl 2-((3-chloro-4-fluorophenyl)carbamoyl)-10-methyl-11-oxo-2,3,4,7,8,9,10,11-octahydro-1H-pyrido[4′,3′:3,4]pyrazolo[1,5-a][1,4]diazepine-8-carboxylate] the value was above 1 µM; for `CNC(=O)C1CN(C)C(=O)c2c3c(nn2C1)CCN(C(=O)Nc1ccc(F)c(Cl)c1)C3` (stereo not shown) [Compound 031, N2-(3-chloro-4-fluorophenyl)-N8,10-dimethyl-11-oxo-1,3,4,7,8,9,10,11-octahydro-2H-pyrido[4′,3′:3,4]pyrazolo[1,5-a][1,4]diazepine-2,8-dicarboxamide], 0.001 to 0.1 µM.
